Assay results as given in patent US20100273748A1, “ANTIMICROBIAL THERAPY” (priority 2006, published 2010).

Tests used:
Staphylococcus aureus = test: Bacterial growth inhibition (turbidity OD600) with or without carbonate; format: cell-based
E. coli = test: Bacterial growth inhibition with or without NaHCO3; format: cell-based
Group B Strep (GBS) = test: Bacterial growth inhibition with or without NaHCO3; format: cell-based; details: 16 uM CRAMP without NaHCO3
Salmonella = test: Bacterial growth inhibition with or without NaHCO3; format: cell-based; details: 16 uM CRAMP without NaHCO3
antigen presentation = test: Antigen presentation in vitro; format: cell-based
cathelicidin [1] = test: qPCR of cathelicidin mRNA in cultured keratinocytes; format: cell-based, human
Method: Cell culture and stimuli. Human keratinocytes were grown in serum-free EpiLife® cell culture media (Cascade Biologics; Portland, Oreg.) containing 0.06 mM Ca2+ and 1× EpiLife® defined growth supplement (EDGS) at 37° C. under standard tissue culture conditions. Stock cultures were maintained for up to five passages in this media with the addition of 50 U/mL penicillin and 50 μg/mL streptomycin. HaCaT keratinocytes were cultured in DMEM (Sigma, St. Louis, Mo.) with 10% FCS. Cells at 50-70% confluence were stimulated in fresh medium after preincubation with 1,25(OH)2 vitamin D3 (1,25D3; 0.1-100 nM, 4-24 h; Sigma). Alternatively, NHEK were stimulated in the presence of 1,25D3 (0.1-100 nM). Stimuli included TLR2,6 ligands Malp-2 (0.001-0.5 μg/ml; Alexis Biochemicals, Carlsbad, Calif.), FSL-1 (1-2 μg/ml, Invivogen, San Diego, Calif.) and zymosan (50 μg/ml; Invivogen), as well as flagellin (50 ng/ml; Alexis), LPS (1 μg/ml; Sigma), lipoteichoic acid (LTA; 10 μg/ml; Sigma), 19 kDA lipopeptide (10 μg/ml, a kind gift from S. Krutzik, Division of Dermatology, UCLA), CpG DNA (10 μg/ml; Sigma), Ca2+ (1.7 mM), LPS (1 μg/ml; Sigma), TNFα (20 ng/ml; Chemicon Temecula, Calif.) and TGFβ1 (0.1-1 μg/ml; R&D Systems, Minneapolis, Minn.). A TLR2 blocking antibody (αTLR2; clone TL2.1, 5 μg/ml, eBioscience, San Diego, Calif.) was utilized to investigate the role of TLR2 signaling. Furthermore, keratinocytes were pretreated with a vitamin D receptor antagonist (VDR-antagonist ZK159222 Schering AG; 10^-7M) or the CYP inhibitor itraconazole (ITRA; 10^-7M) before stimulation with TGFβ in the presence of 25OH vitamin D3 (25D3, 10 nM, Sigma).
Real-time RT-PCR (qPCR). RNA was extracted from cells, epidermal constructs or tissue using Trizol® and 1 μg RNA was reverse transcribed using iScript® (BioRad, Hercules, Calif.). Expression of cathelicidin and GAPDH was analysed by real-time RT-PCR. Predeveloped Taqman® assay probes (ABI, Foster City, Calif.) were used for the analyses of the expression of CYP24A1 (24-hydroxylase), CYP27B1 (1α-hydroxylase), CD14, CD36, TLR1, TLR2, TLR4, TLR6 and murine CD14. All analyses were performed in triplicate from 2-5 independent experiments in an ABI Prism® 7000 Sequence Detection System. Fold induction relative to the vehicle treated control in in vitro experiments was calculated using the comparative Ct method, where ΔΔCt is ΔCt(stimulant)-ΔCt(vehicle), ΔCt is Ct(gene)-Ct(GAPDH) and Ct is the cycle at which an arbitrary detection threshold is crossed. For quantification of transcript abundance in tissue samples target gene expression was normalized to GAPDH and compared to non-treated or non-injured skin.

CYP27B1 = test: qPCR of CYP27B1 mRNA in cultured keratinocytes; format: cell-based, human; details: 24 hours, TGF 1 μg/ml, TNFα 20 ng/ml, TLR2 ligand Malp-2
Method: (§1) Cell culture and stimuli. Human keratinocytes were grown in serum-free EpiLife® cell culture media (Cascade Biologics; Portland, Oreg.) containing 0.06 mM Ca2+ and 1× EpiLife® defined growth supplement (EDGS) at 37° C. under standard tissue culture conditions. Stock cultures were maintained for up to five passages in this media with the addition of 50 U/mL penicillin and 50 μg/mL streptomycin. HaCaT keratinocytes were cultured in DMEM (Sigma, St. Louis, Mo.) with 10% FCS. Cells at 50-70% confluence were stimulated in fresh medium after preincubation with 1,25(OH)2 vitamin D3 (1,25D3; 0.1-100 nM, 4-24 h; Sigma). Alternatively, NHEK were stimulated in the presence of 1,25D3 (0.1-100 nM). […]
(§2) Real-time RT-PCR (qPCR). […] Expression of cathelicidin and GAPDH was analysed by real-time RT-PCR. […] Fold induction relative to the vehicle treated control in in vitro experiments was calculated using the comparative Ct method, where ΔΔCt is ΔCt(stimulant)-ΔCt(vehicle), ΔCt is Ct(gene)-Ct(GAPDH) and Ct is the cycle at which an arbitrary detection threshold is crossed. For quantification of transcript abundance in tissue samples target gene expression was normalized to GAPDH and compared to non-treated or non-injured skin.

IL-8 = test: qPCR of IL-8 transcript in cultured keratinocytes; format: cell-based, human; details: Malp-2 (0.1 μg ml^−1) only
Method: as §1, §2

cathelicidin [2] = test: Cathelicidin peptide immunostaining in organotypic epidermal constructs; format: cell-based, human
Text: Organotypic culture. Epiderm™ human skin-like tissue constructs were obtained from MatTek (Ashland, Mass.) and cultured according to manufacturer's instructions. […] Skin constructs were cut after stimulation and transferred to Trizol® (Invitrogen, Carlsbad, Calif.) for RNA extraction or immediately frozen in Tissue-Tek® (Sakura, Torrance, Calif.) for immunostaining.
Immunostaining. After fixation in 2% PFA and subsequent washings in PBS, sections from skin tissue or epidermal constructs were blocked in 3% BSA in PBS for 30 min at RT and stained with anti-cathelicidin LL-37 primary antibody or preimmune serum. After washings in PBS, slides from epidermal constructs were re-probed with a FITC labeled goat anti-chicken antibody. Nuclei were detected with DAPI. After subsequent washings with PBS slides, were mounted in ProLong Anti-Fade reagent (Molecular Probes, Eugene, Oreg.) and evaluated with an Olympus BX41 microscope (Olympus, Melville, N.Y.). Paraffin embedded formalin fixed tissue sections were rehydrated in a series of toluene, ethanol, and PBS. Endogenous peroxidase activity was quenched by 30 min incubation in 0.3% H2O2 in water, and sections microwaved for 4 min in antigen retrieval solution (0.01M citric acid, 0.05M

cathelicidin promoter = test: Cathelicidin (CAMP) promoter luciferase reporter in HaCat keratinocytes; format: cell-based, human
Text: Promoter analysis and site directed mutagenesis. […]. Primers were designed to introduce an NheI restriction site at the 5″end and an XhoI restriction site at the 3″end of the amplicon. The amplification product was cloned into the TOPO vector (Invitrogen) and transformed into E. coli TOP10 OneShot competent cells (Invitrogen). After DNA purification using the WizardPLus, SV Miniprep purification system (Promega, Madison, Wis.) the construct was digested with NheI and XhoI and then subcloned into the promoterless pGL3-basic firefly luciferase vector (Promega). […]. The resulting plasmid lacking the VDRE binding site cloned in the pGL3-basic vector was termed pGL-3 1500-VDRE. All resulting constructs were confirmed by sequencing. For transfection HaCat cells were seeded in 24 well plates (BD Biosciences) and used for transfection at 50 to 70% confluence. Cells were transfected with the indicated CAMP reporter plasmids and 0.1 μg of an internal-control Renilla luciferase expression plasmid (pRL-TK; Promega, Madison, Wis.) by using 1.5 μl of transfection reagent Fugene 6 (Roche) according to the manufacturer's instructions. […] Firefly luciferase activity from the CAMP pGL3 reporter vectors and Renilla luciferase activity were measured by the Dual Luciferase Assay system (Promega) in a luminometer (Optocomp I, MGM Instruments, Hamden, Conn.). […]

acetylated histone H4 = test: Histone H4 acetylation in keratinocytes (immunofluorescence, Western blot); format: cell-based, human; details: NHEK stimulated with butyrate or TLR ligand
Method: Panel a; Immunofluorescence staining of acetylated histone H4 protein in NHEK treated with HDACi in the presence or absence of 1,25D3. […] Panel b: Western blot of acetylated histone 4 from keratinocytes treated with the HDACi butyrate or TLR agonists. […] Bar=30 μM.
The abundance of acetylated histone was directly measured to confirm the inhibitory effects of butyrate and TSA on HDACs. […] To determine if changes in histone acetylation occur upon stimulation of keratinocytes with TLR ligands NHEK were stimulated with different TLR ligands and histone acetylation was assessed.

[3] = test system: Staphylococcus aureus mprF; test: Radial diffusion assay; format: cell-based
Method: Sweat collection and processing. Sweat was collected on paper tissues (Kimwipes, Kimberly-Clark, Ga.) from healthy volunteers after exercise. After collection, 20 ml of sweat was centrifuged at 2000 g for 15 min. at 4° C., filtered through a […] (Acrodisc syringe filter, 0.2 mm, low protein binding, Fisher scientific, Tustin, Calif.), and frozen at −80° C. For some experiments sweat was lyophilized to dryness, then suspended in 400 μl of distilled water (DW: cell culture grade, endotoxin free, GibcoBRL, Grand island, NY). For analysis of LL37 processing by sweat, 1.6 nmol of LL-37 synthetic peptide was incubated in 50 ml of sweat for 0, 1, 6, 24 hrs at 37° C. or 4° C. In some experiments proteinase inhibitors including; mixed protease inhibitor cocktail (1tab/10 ml, Roche, Indianapolis, Ind.), […] Bestatin, 10 mg/ml E-64, 10 mg/ml Aprotinin, (Sigma, St Louis, Mo.); 100 mM AEBSF, 100 mM Neutrophil elastase inhibitor (NEI) or 100 mM leukocyte elastase inhibitor (LEI) (Calbiochem, San Diego, Calif.) were added during incubation. After incubation, 2 ml was assayed by radial diffusion assay to determine antibacterial activity. For analysis by HPLC 32 nmoles LL-37 was incubated in 100u1. To control for potential contamination from paper tissues, parallel processing was done on tissues soaked in phosphate-buffered saline (PBS:137 mM NaCl, 2.7 mM KCL, 4.3 mM Na2HPO4-H2O, 1.4 mM KH2PO4, pH 7.4). No antimicrobial activity was detectable in these preparations. Protein concentrations were evaluated by BCA assay (protein assay reagent, Pierce, Rockford, Ill.) or Bradford protein assay (Bio-Rad, Hercules, Calif.) according to manufacture's instructions. Human tissue and blood collection was approved by the UCSD Human Research Protection Program.
Antimicrobial assays. For screening of antimicrobial activity of HPLC fractions, radial diffusion assay was used. Lyophilized HPLC fractions were dissolved in DW (GibcoBRL, Grand Island, N.Y.), and tested against Staphylococcus aureus mprF. Thin plates (1 mm) of 1% agarose in 0.5% tryptone containing approximately 1×10^6 cells/ml of S. aureus mprF were used. 1 mm wells were punched in the plates and […] of samples dissolved in tissue culture grade sterile water were loaded in each well.

[4] = test system: wild-type S. aureus (clinical isolate); test: Radial diffusion assay; format: cell-based
[5] = test system: enteroinvasive E. coli 029; test: Radial diffusion assay; format: cell-based
C. albicans = test: Liquid assay, minimum fungicide concentration; format: cell-based, Candida albicans
Method: Action against the C. albicans was determined in Dixon medium (0.6% Peptone, 4% Malt Extract, 1% Glucose, 0.1% Ox Bile, 1% Tween-80) in sterile 96-well microtiter plates (Corning Inc., Corning, N.Y.) at a final volume of 50 ml. […] Microtiter plates were incubated at 37° C. for 24 h with peptides, then plated on Dixon agar to determine the MFC (minimum fungicide concentration).

[6] = test system: Group A Streptococcus (NZ131)
Method: Solution killing was done in 10% TSB in 10 mM PB (TSB=30 gm/L Tryptic Soy Broth, Sigma, St Louis Mo.; 20×PB=27.6 g/L NaH2PO4-H2O, 53.65 g/L Na2HPO4-7H2O, pH 7.4). Bacteria in log-phase growth were suspended to 1×10^6 cells/ml, peptide added and incubated at 37° C. for 2 hr. Bacteria were then plated on TSB agar (TSB, Bactoagar 13 g/L, Becton Dickinson, Sparks Md.) for direct colony count and determination of CFU.
Activity against Group A Streptococcus (NZ131) was done only in solution assay as described.

[7] = 16 uM CRAMP without 50 mM NaHCO3

CRAMP
susceptibility to peptide (Staphylococcus aureus; 16 uM CRAMP with 50 mM NaHCO3): became susceptible | susceptibility to peptide (Staphylococcus aureus; [7]): resistant | change of minimal inhibitory concentration (MIC) by NaHCO3 (Staphylococcus aureus; 20% TSB, 1 mM NaH2PO4, with or without 50 mM NaHCO3, pH 7.4): greatly reduced | susceptibility to peptide (E. coli; 16 uM CRAMP with 50 mM NaHCO3): became susceptible | susceptibility to peptide (E. coli; [7]): resistant | susceptibility to peptide (Group B Strep (GBS)): susceptible even without NaHCO3 | susceptibility to peptide (Salmonella): susceptible even without NaHCO3 | antigen presentation in vitro (antigen presentation): inhibits antigen presentation in vitro

Malp-2
cathelicidin transcript abundance (cathelicidin [1]; Malp-2 (0.1 μg ml^−1) alone): has no effect | cathelicidin response to Malp-2 (cathelicidin [1]; keratinocyte monolayers in high calcium (1.7 mM), no 1,25D3): did not respond to TLR2,6 activation by Malp-2 | cathelicidin expression in response to TLR ligand (cathelicidin [1]; keratinocytes pretreated with 1,25D3 0.1 nM 24 hours, then TLR ligand 24 hours): responded to Malp-2 | CYP27B1 expression (CYP27B1): could be induced | IL-8 expression (IL-8): increased when stimulated with only Malp-2 | cathelicidin peptide response to Malp-2 (cathelicidin [2]; Malp-2 0.1 μg/ml with 1,25D3 (100 nM)): did after its addition | cathelicidin peptide response to Malp-2 (cathelicidin [2]; Malp-2 0.1 μg/ml, absence of 1,25D3): did not respond to Malp-2 in the absence of 1,25D3 | cathelicidin promoter activity (cathelicidin promoter; Malp-2 0.1 μg/ml in the presence of 1,25D3 (100 nM), construct including the VDRE): responsive to Malp-2 | cathelicidin promoter activity (cathelicidin promoter; absence of 1,25D3 or the VDRE): no significant effect | acetylation of histone H4 (acetylated histone H4): also increased histone acetylation

SSLLEKGLDGAKKAVGGLGKLGKDAVEDLESVGKGAVHDVKDVLDSV [DCD]
Radial Diffusion Assay, minimal inhibitory concentration (MIC), S. aureus mprF (head printed truncated: aureus cF) [3]: 4 μm | Radial Diffusion Assay, minimal inhibitory concentration (MIC), S. aureus (wt) [4]: 4 μm | Radial Diffusion Assay, minimal inhibitory concentration (MIC), E. coli (O29)) [5]: 4 μm | Liquid Assay, minimal concentration required to kill C. albicans ATCC 14053 (head printed truncated: albicans CC 14053) (C. albicans): 7 μm | Liquid Assay, minimal concentration required to kill GAS (NZ131) [6]: 4 μm
